Laboratory results from US6693216B2, “Calcium double salts” (Nutrinova Nutrition Specialties & Food Ingredients GmbH, priority 2000, dated 2004).
Where two headings read alike, the source gives them in different places.

Key:
Yeasts = details: Part II, 1 g/l in apple juice pH 4.5, 25° C.
Thermophilic bacilli = details: Part II, 1 g/l in apple juice pH 4.5, 25° C.
Clostridia = details: Part II, 1 g/l in apple juice pH 4.5, 25° C.
Bacilli = details: Part II, 1 g/l in apple juice pH 4.5, 25° C.
Molds I = details: Part II, 1 g/l in apple juice pH 4.5, 25° C.
Gram-positive bacteria = details: Part II, 1 g/l in apple juice pH 4.5, 25° C.
Molds II = details: Part II, 1 g/l in apple juice pH 4.5, 25° C.
Acetic acid bacteria = details: Part II, 1 g/l in apple juice pH 4.5, 25° C.
Gram-negative bacteria = details: Part II, 1 g/l in apple juice pH 4.5, 25° C.
[1] = sealed
Source text: Salts prepared as in example 1 were dried, stored under the specified conditions without the addition of other substances and checked at regular intervals visually for discoloration: […]

Lactic acid bacteria = details: Part II, 1 g/l in apple juice pH 4.5, 25° C.
[2] = 1 day after inoculation (2.7 × 10^4)
[3] = 3 days after inoculation (2.7 × 10^4)
[4] = 7 days after inoculation (2.7 × 10^4)
[5] = 14 days after inoculation (2.7 × 10^4)

C/C=C/C=C/C(=O)[O-].O=C[O-].[Ca+2]
Number of surviving microorganisms per g of contaminated sample, Yeasts (Yeasts; 1 day after inoculation (2.6 × 10^4)): 1.3 × 10^4 CFU/g
Number of surviving microorganisms per g of contaminated sample, Yeasts (Yeasts; 3 days after inoculation (2.6 × 10^4)): 4.3 × 10^3 CFU/g
Number of surviving microorganisms per g of contaminated sample, Yeasts (Yeasts; 7 days after inoculation (2.6 × 10^4)): <100 CFU/g
Number of surviving microorganisms per g of contaminated sample, Yeasts (Yeasts; 14 days after inoculation (2.6 × 10^4)): <10 CFU/g
Number of surviving microorganisms per g of contaminated sample, Thermophilic bacilli (Thermophilic bacilli; 1 day after inoculation (1.3 × 10^4)): 2.0 × 10^3 CFU/g
Number of surviving microorganisms per g of contaminated sample, Thermophilic bacilli (Thermophilic bacilli; 3 days after inoculation (1.3 × 10^4)): 3.0 × 10^2 CFU/g
Number of surviving microorganisms per g of contaminated sample, Thermophilic bacilli (Thermophilic bacilli; 7 days after inoculation (1.3 × 10^4)): <10 CFU/g
Number of surviving microorganisms per g of contaminated sample, Thermophilic bacilli (Thermophilic bacilli; 14 days after inoculation (1.3 × 10^4)): <10 CFU/g
Number of surviving microorganisms per g of contaminated sample, Clostridia (Clostridia; 1 day after inoculation (2.9 × 10^4)): 1.1 × 10^3 CFU/g
Number of surviving microorganisms per g of contaminated sample, Clostridia (Clostridia; 3 days after inoculation (2.9 × 10^4)): <100 CFU/g
Number of surviving microorganisms per g of contaminated sample, Clostridia (Clostridia; 7 days after inoculation (2.9 × 10^4)): 100 CFU/g
Number of surviving microorganisms per g of contaminated sample, Clostridia (Clostridia; 14 days after inoculation (2.9 × 10^4)): <10 CFU/g
Number of surviving microorganisms per g of contaminated sample, Bacilli (Bacilli; 1 day after inoculation (3.3 × 10^4)): 3.2 × 10^3 CFU/g
Number of surviving microorganisms per g of contaminated sample, Bacilli (Bacilli; 3 days after inoculation (3.3 × 10^4)): 1.8 × 10^3 CFU/g
Number of surviving microorganisms per g of contaminated sample, Bacilli (Bacilli; 7 days after inoculation (3.3 × 10^4)): 1.7 × 10^3 CFU/g
Number of surviving microorganisms per g of contaminated sample, Bacilli (Bacilli; 14 days after inoculation (3.3 × 10^4)): 1.8 × 10^3 CFU/g
Number of surviving microorganisms per g of contaminated sample, Molds I (Molds I; 1 day after inoculation (2.2 × 10^4)): 3.8 × 10^3 CFU/g
Number of surviving microorganisms per g of contaminated sample, Molds I (Molds I; 3 days after inoculation (2.2 × 10^4)): 2.0 × 10^2 CFU/g
Number of surviving microorganisms per g of contaminated sample, Molds I (Molds I; 7 days after inoculation (2.2 × 10^4)): 25 CFU/g
Number of surviving microorganisms per g of contaminated sample, Molds I (Molds I; 14 days after inoculation (2.2 × 10^4)): 10 CFU/g
Number of surviving microorganisms per g of contaminated sample, Gram-positive bacteria (Gram-positive bacteria; 1 day after inoculation (2.1 × 10^4)): 2.1 × 10^4 CFU/g
Number of surviving microorganisms per g of contaminated sample, Gram-positive bacteria (Gram-positive bacteria; 3 days after inoculation (2.1 × 10^4)): 8.5 × 10^3 CFU/g
Number of surviving microorganisms per g of contaminated sample, Gram-positive bacteria (Gram-positive bacteria; 7 days after inoculation (2.1 × 10^4)): 6.8 × 10^2 CFU/g
Number of surviving microorganisms per g of contaminated sample, Gram-positive bacteria (Gram-positive bacteria; 14 days after inoculation (2.1 × 10^4)): <10 CFU/g
Number of surviving microorganisms per g of contaminated sample, Molds II (Molds II; 1 day after inoculation (2.5 × 10^4)): 3.9 × 10^3 CFU/g
Number of surviving microorganisms per g of contaminated sample, Molds II (Molds II; 3 days after inoculation (2.5 × 10^4)): <100 CFU/g
Number of surviving microorganisms per g of contaminated sample, Molds II (Molds II; 7 days after inoculation (2.5 × 10^4)): <10 CFU/g
Number of surviving microorganisms per g of contaminated sample, Molds II (Molds II; 14 days after inoculation (2.5 × 10^4)): <10 CFU/g
Number of surviving microorganisms per g of contaminated sample, Acetic acid bacteria (Acetic acid bacteria; 1 day after inoculation (2.8 × 10^4)): 2.1 × 10^4 CFU/g
Number of surviving microorganisms per g of contaminated sample, Acetic acid bacteria (Acetic acid bacteria; 3 days after inoculation (2.8 × 10^4)): 1.6 × 10^4 CFU/g
Number of surviving microorganisms per g of contaminated sample, Acetic acid bacteria (Acetic acid bacteria; 7 days after inoculation (2.8 × 10^4)): 7.6 × 10^3 CFU/g
Number of surviving microorganisms per g of contaminated sample, Acetic acid bacteria (Acetic acid bacteria; 14 days after inoculation (2.8 × 10^4)): 2.6 × 10^4 CFU/g
Number of surviving microorganisms per g of contaminated sample, Gram-negative bacteria (Gram-negative bacteria; [2]): 1.7 × 10^4 CFU/g
Number of surviving microorganisms per g of contaminated sample, Gram-negative bacteria (Gram-negative bacteria; [3]): 2.5 × 10^3 CFU/g
Number of surviving microorganisms per g of contaminated sample, Gram-negative bacteria (Gram-negative bacteria; [4]): 2.0 × 10^3 CFU/g
Number of surviving microorganisms per g of contaminated sample, Gram-negative bacteria (Gram-negative bacteria; [5]): <10 CFU/g
Time after yellow-brown discoloration of a 1% strength aqueous solution ([1]; dark at 7° C.): 12 months/>12 months
Time after yellow-brown discoloration of the powder ([1]; dark at 7° C.): >12 months />12 months
Time after yellow-brown discoloration of a 1% strength aqueous solution ([1]; dark at 25° C.): 12 months/>12 months
Time after yellow-brown discoloration of the powder ([1]; dark at 25° C.): >12 months />12 months
Time after yellow-brown discoloration of a 1% strength aqueous solution ([1]; under sunlight at 7° C.): 12 months/>12 months
Time after yellow-brown discoloration of the powder ([1]; under sunlight at 7° C.): 12 months/>12 months
Time after yellow-brown discoloration of a 1% strength aqueous solution ([1]; under sunlight at 25° C.): 12 months/>12 months
Time after yellow-brown discoloration of the powder ([1]; under sunlight at 25° C.): 12 months/>12 months
Number of surviving microorganisms per g of contaminated sample, Lactic acid bacteria (Lactic acid bacteria; [2]): 3.9 × 10^3 CFU/g
Number of surviving microorganisms per g of contaminated sample, Lactic acid bacteria (Lactic acid bacteria; [3]): 1.5 × 10^3 CFU/g
Number of surviving microorganisms per g of contaminated sample, Lactic acid bacteria (Lactic acid bacteria; [4]): <10 CFU/g
Number of surviving microorganisms per g of contaminated sample, Lactic acid bacteria (Lactic acid bacteria; [5]): <10 CFU/g
Preservative action against the microorganisms used (all microorganisms used; 1 g/l in apple juice pH 4.5, up to 14 days): acts well and persistently against all microorganisms used, except for acetic acid bacteria and bacilli
Preservative action compared with the single salts (all microorganisms used; same concentration, 1 g/l in apple juice pH 4.5): acts surprisingly better than calcium formate (in particular against lactic acid bacteria, yeasts and molds) or calcium sorbate (in particular against Gram-negative bacteria) used alone
